Measured values published in US11166922B2, “Method for treating hyperhidrosis with dexmecamylamine” (Atacama Therapeutics, Inc., priority 2014, dated 2021).

Columns and labels:
[1] = human, in vivo, po; cited from earlier work
[2] = Excretion of dexmecamylamine in urine; details: in vivo
Excerpt: The exposure differential results in the ability of dexmecamylamine to target local nicotinic receptors in the urothelium that affect bladder contraction frequency while limiting systemic side effects. Consequently, the potential for dexmecamylamine to treat OAB through its action on nAChRs in the bladder urothelium warrants further investigation.

sympathetic activities = test: Dose-responses for inhibition of sympathetic activities at low and high firing frequency (FIG. 2); details: 1 Hz versus 10 Hz firing frequency
Description: This is believed due, in part, to the fact that TC-5214 potency will increase with frequency due to its slow off-rate kinetics. See FIG. 2, which illustrates a 10-fold shift to the left with increasing frequency. The effective dose range, therefore, is believed to be between 0.1 and 1 mg; with a top dose at 2 mg once per day, since sympathetic activity decreases at night in primary hyperhidrosis. […] The potency of TC-5214 shifts to the left (red/triangle curve) thereby reducing sweating due to overactive sympathetic but remain too low to induce inhibition of the parasympathetic and associated side effects, including urinary retention and constipation.

[3] = tested on: Major Depressive Disorder (MDD) subjects; format: in vivo, human
Description: More recently, dexmecamylamine was evaluated as adjunctive therapy in the treatment of major depressive disorder (MDD) in a large international Phase 3 depression program. […] More than 2400 subjects have received dexmecamylamine in double-blind or open-label studies.
No safety studies using dexmecamylamine have been performed in OAB. Phase 2 and Phase 3 clinical studies using dexmecamylamine in Major Depressive Disorder (MDD) have been conducted and completed. […] Briefly, in the fixed dose Phase 3 studies in MDD, at doses of 2 mg BID (the maximum doses to be studied in the OAB study), the most frequent treatment emergent adverse events that were reported more than 2% more commonly in the dexmecamylamine group compared to placebo group were: constipation (15.2% dexmecamylamine vs. 3.8% placebo): and dry mouth (7.0% dexmecamylamine vs. 1.3% placebo).

[4] = tested on: subjects with overactive bladder; format: in vivo, human
Description: Dexmecamylamine is a use-dependent potent inhibitor of the α3 nicotinic receptor subtype (e.g., α3β2 and α3β4). Such receptors are expressed in the urothelium and regulate bladder smooth muscle contraction. (Beckel et al., Expression of functional nicotinic acetylcholine receptors in rat urinary bladder epithelial cells, Am. J. Physiol. Renal Physiol. 290:F103-110, 2006). A clinical study was performed to evaluate the safety, tolerability, and efficacy of dexmecamylamine (TC-5214) for the treatment of Overactive Bladder (OAB). The study included a three- or five-week screening period, followed by a 12-week treatment period during which patients received either one of three doses of dexmecamylamine or placebo twice daily, randomized in a ratio of 2:1:1:1 (placebo, low dose, mid dose, high dose), with a two-week follow-up period. A total of 768 subjects with overactive bladder were randomized into the double-blind treatment period of the study. On Jul. 28, 2014, Targacept announced top-line results from the Phase 2b clinical trial of TC-5214 as a treatment for overactive bladder (OAB). […] See also, PCT Application No. […], which published as WO 2013/142162 A1.
As noted hereinabove, a clinical study was performed to evaluate the safety, tolerability, and efficacy of dexmecamylamine (TC-5214) for the treatment of Overactive Bladder (OAB). The study included a three- or five-week screening period, followed by a 12-week treatment period during which patients received either one of three doses of dexmecamylamine or placebo twice daily, randomized in a ratio of 2:1:1:1 (placebo, low dose, mid dose, high dose), with a two-week follow-up period. A total of 768 subjects with overactive bladder were randomized into the double-blind treatment period of the study. […] See also, PCT Application No. PCT/US2013/030640, which published as WO 2013/142162 A1.

[5] = pre-clinical; see U.S. Pat. No. 7,101,916; cited from earlier work

Row | SMILES | absorption from the gastrointestinal tract [1] | excretion in the urine [2] | shift of potency (dose-response to the left) with increasing frequency (sympathetic activities) [fold] | efficacy in the treatment of depression ([3]; adjunctive therapy, Phase 3 depression program) | safety and tolerability ([3]; human, in vivo) | vital signs, blood or urine laboratory measurements, ECG conduction intervals, suicidality ([3]; human, in vivo) | micturition frequency per 24 hours (co-primary endpoint) ([4]; high dose, twice daily, after 12 weeks of treatment, p=0.033) | episodes of urinary incontinence per 24 hours (co-primary endpoint) ([4]; high dose, twice daily, after 12 weeks of treatment, p=0.379) | safety and tolerability ([4]; human, in vivo) | placebo corrected rate of constipation ([4]; human, in vivo, 12 weeks) [%] | rate of urinary tract infection (placebo corrected) ([4]; human, in vivo, 12 weeks) [%] | safety profile versus mecamylamine and its R-isomer [5]
1 | CNC1(C)C2CCC(C2)C1(C)C.Cl (racemic) [mecamylamine, N,2,3,3-tetramethylbicyclo[2.2.1]heptan-2-amine hydrochloride] | nearly complete absorption |  |  |  |  |  |  |  |  |  |  | 
2 | CNC1(C)[C@H]2CCC(C2)C1(C)C (stereo in doubt) [TC-5214, (S)-N,2,3,3-tetramethylnorbornan-2-amine] |  | excreted almost entirely unchanged in the urine | 10 | failed to demonstrate efficacy | generally safe and well-tolerated | no noteworthy differences | statistically significant reduction | improvement that did not reach statistical significance | generally safe and well tolerated | 15.1 | 5.9 | superior safety profile
